Results from patent US11633473B2 (priority 2017, dated 2023).

Assays:
[1] = system: neonatal BMDCs; experiment: BMDC in vitro stimulation with PRR agonists/adjuvants, 20-24 h: cytokines by ELISA, maturation markers by flow cytometry; format: cell-based, C57BL/6 mice
Method: Briefly, mice were sacrificed and legs removed; bones were surgically cleaned from surrounding tissue, extremities of tibiae and femurs were trimmed with sterile scissors and bone marrow flushed through a 70 μm nylon mesh strainer (Corning Life Sciences). Cell number and viability was determined by trypan blue exclusion. […] Plates were incubated in humidified atmosphere at 37° C., 5% CO2 for 6 days, with one supplement of 10 ml of complete culture medium and rmGM-CSF on day 3. On Day 6, non-adherent and loosely adherent cells were harvested by washing the plate gently with culture medium. Adherent cells were discarded. For flow cytometry analysis, BMDCs were stained (20 minutes at 4° C.) in PBS+FBS 2%+EDTA 2 mM, fixed with formaldehyde 4% (10 minutes at RT) and acquired on a BD LSRFortessa flow cytometer (BD Biosciences) or a Sony spectral analyzer SP6800 (Sony Biotechnology) and data were analyzed using FlowJo v.10 software (Tree Star). For a complete list of antibodies and fluorochromes used in the study see Table 2.
Rough (Salmonella Minnesota, R595) and smooth (Escherichia coli, O55:B5) lipopolysaccharide (LPS) were purchased from List Biological Laboratories. […] All PRR agonists employed in the studies were chosen based on and verified endotoxin free as indicated by the manufacturers. For stimulation experiments, immature BMDCs generated from newborn and adult mice were plated in round bottom 96-wells non-tissue culture-treated plates at the density of 10^5 cells/well in 200 μl of fresh complete culture medium with rmGM-CSF as described above, with the appropriate stimuli at the concentrations indicated in Table 3. Cells were incubated at 37° C. for 20-24 hours, then supernatant harvested and TNF, IL-6, IL-1β and IL-12p70 concentrations were measured by ELISA (R&D Systems). IFNβ was measured with a bioluminescent ELISA kit (LumiKine, Invivogen). Alternatively, BMDCs were stained and analyzed by flow cytometry as indicated above.

[2] = system: newborn mice; format: in vivo; conditions: single dose immunization, serum at DOL 35
[3] = system: newborn C57BL/6 mice; format: in vivo; conditions: prime-boost DOL 7 and 14, Day 35 post-prime (DOL 42)
[4] = system: adult BMDCs; experiment: BMDC in vitro stimulation with PRR agonists/adjuvants, 20-24 h: cytokines by ELISA; format: cell-based, C57BL/6 mice; conditions: increasing concentrations
Method: BMDCs were generated from newborn (5-7 days old) and adult (6-12 weeks old) C57BL/6 mice with an adaptation of previously described methods (Dowling et al., 2008, Lutz et al., 1999). Briefly, mice were sacrificed and legs removed; bones were surgically cleaned from surrounding tissue, extremities of tibiae and femurs were trimmed with sterile scissors and bone marrow flushed through a 70 μm nylon mesh strainer (Corning Life Sciences). Cell number and viability was determined by trypan blue exclusion. […] For flow cytometry analysis, BMDCs were stained (20 minutes at 4° C.) in PBS+FBS 2%+EDTA 2 mM, fixed with formaldehyde 4% (10 minutes at RT) and acquired on a BD LSRFortessa flow cytometer (BD Biosciences) or a Sony spectral analyzer SP6800 (Sony Biotechnology) and data were analyzed using FlowJo v.10 software (Tree Star). […]
Rough (Salmonella Minnesota, R595) and smooth (Escherichia coli, O55:B5) lipopolysaccharide (LPS) were purchased from List Biological Laboratories. […] Cells were incubated at 37° C. for 20-24 hours, then supernatant harvested and TNF, IL-6, IL-1β and IL-12p70 concentrations were measured by ELISA (R&D Systems). IFNβ was measured with a bioluminescent ELISA kit (LumiKine, Invivogen). Alternatively, BMDCs were stained and analyzed by flow cytometry as indicated above. […]

[5] = system: adult C57BL/6 mice; format: in vivo; conditions: prime-boost i.m., rHA + adjuvant, Day 35 post-prime
[6] = Quantification of 2′3′-cGAMP adsorption onto alum by RP-HPLC; conditions: for % Adsorbed to Alum: 1:10 cGAMP:alum mass ratio, saline
Method: After vortexing for 10 seconds the sample was placed in a 37° C. incubator. Every 15 minutes the sample was vortexed for an additional 5 seconds and placed back into the incubator. […] Supernatant was immediately removed and placed into an autosampler vial undiluted for analysis by reverse-phase high performance liquid chromatography (RP-HPLC) to determine adsorption as a function of time. RP-HPLC samples were run on a Waters 2695 HPLC equipped with a 2996 photodiode array detector at a wavelength of 254 nm. A gradient was performed using a two mobile phase system of 0.1% trifluoroacetic acid in water and 0.1% trifluoroacetic acid in acetonitrile, on an Agilent Zorbax Eclipse Plus C18, 4.6×150 mm, 5 micron column at 25° C.

Compound: CCCCNc1nc(N)c2[nH]c(=O)n(Cc3ccc(C(=O)NCC(=O)O)cc3)c2n1 [CL264, reference compound]
- IL-12p70 production by neonatal BMDCs ([1]; most effective non-toxic concentration, 20-24 h): failed to produce IL-12p′70

Compound: Nc1nc2c(ncn2[C@@H]2O[C@@H]3COP(=O)(O)O[C@H]4[C@@H](O)[C@H](n5cnc6c(N)ncnc65)O[C@@H]4COP(=O)(O)O[C@@H]2[C@@H]3O)c(=O)[nH]1 [cGAMP, cyclic guanosine monophosphate (GMP)-adenosine monophosphate (AMP)]
- median anti-rHA IgG1 titers [2]: did not induce detectable
- median anti-rHA IgG2c titers [2]: did not induce detectable
- median anti-rHA IgG titers [2]: did not induce detectable
- median anti-rHA IgG1 titers [3]: 24.51×10^3
- median anti-rHA IgG2c titers [3]: 0.23×10^3
- median anti-rHA IgG titers [3]: 20.57×10^3
- IFNβ production [4]: dose-dependent IFNβ production
- median anti-rHA IgG1 titers [5]: 0.77×10^6
- median anti-rHA IgG2c titers [5]: 0.82×10^6
- median anti-rHA IgG titers [5]: increased anti-rHA IgG titers
- degradation products during incubation with alum ([6]; 37° C., over 24 hours): No significant degradation products
- Peak Area of cGAMP in supernatant (RP-HPLC, 254 nm) ([6]; 15 min, 37° C.): 22.53 mAU
- % Adsorbed to Alum ([6]; 15 min, 37° C.): 63%
- Peak Area of cGAMP in supernatant (RP-HPLC, 254 nm) ([6]; 30 min, 37° C.): 22.93 mAU
- % Adsorbed to Alum ([6]; 30 min, 37° C.): 62.34%
- Peak Area of cGAMP in supernatant (RP-HPLC, 254 nm) ([6]; 1 hour, 37° C.): 22.22 mAU
- % Adsorbed to Alum ([6]; 1 hour, 37° C.): 63.51%
- Peak Area of cGAMP in supernatant (RP-HPLC, 254 nm) ([6]; 2 hours, 37° C.): 20.83 mAU
- % Adsorbed to Alum ([6]; 2 hours, 37° C.): 65.79%
- Peak Area of cGAMP in supernatant (RP-HPLC, 254 nm) ([6]; 4 hours, 37° C.): 21.02 mAU
- % Adsorbed to Alum ([6]; 4 hours, 37° C.): 65.48%
- Peak Area of cGAMP in supernatant (RP-HPLC, 254 nm) ([6]; 24 hours, 37° C.): 15.02 mAU
- % Adsorbed to Alum ([6]; 24 hours, 37° C.): 75.33%
- cGAMP adsorbed onto alum in vitro ([6]; summary statement in discussion, no time given): about 60%
- upregulation of surface maturation markers (CD40, CD80, CD86), neonatal vs adult BMDCs ([1]; 20-24 h stimulation): comparable
- dependence of neonatal BMDC maturation marker expression on type I IFN signaling ([1]; cGAMP 25 μg/ml, blocking anti-TNF and anti-IFNAR antibodies): type I interferon-dependent manner
- upregulation of surface maturation marker expression, cGAMP vs R848 ([1]; neonatal and adult BMDCs, different concentrations): more effective than R848
- IFNβ production ([1]; newborn BMDCs, increasing concentrations): dose-dependent IFNβ production
